For one assay, the target named is T1, human MAO-A (Homo sapiens, UniProt P21397).
T1 sequence (P21397 1-527): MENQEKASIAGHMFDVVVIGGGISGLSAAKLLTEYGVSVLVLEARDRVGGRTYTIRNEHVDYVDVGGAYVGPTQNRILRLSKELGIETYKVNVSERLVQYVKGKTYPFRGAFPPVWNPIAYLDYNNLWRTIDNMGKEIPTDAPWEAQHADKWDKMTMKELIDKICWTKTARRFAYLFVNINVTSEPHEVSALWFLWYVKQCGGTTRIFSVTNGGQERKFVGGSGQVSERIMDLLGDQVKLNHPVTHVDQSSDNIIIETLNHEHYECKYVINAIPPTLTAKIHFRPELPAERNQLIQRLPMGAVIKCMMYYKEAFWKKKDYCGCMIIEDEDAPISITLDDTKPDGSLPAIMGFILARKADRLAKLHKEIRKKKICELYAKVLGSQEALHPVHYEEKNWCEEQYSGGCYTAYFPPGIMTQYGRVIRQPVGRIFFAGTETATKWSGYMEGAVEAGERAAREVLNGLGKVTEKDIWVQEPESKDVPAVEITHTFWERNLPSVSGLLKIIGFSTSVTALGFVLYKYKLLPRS
The experiment in a line: MAO inhibitory assay (kynuramine, fluorescence), MAO-A. Format: biochemical. The note with it: human recombinant enzyme, kynuramine substrate, 37° C., triplicate. How it is done:
(§1) MAO inhibitory activity was assayed using the method of Novaroli et al. with minor modifications. Briefly, 140 μL of 0.1 M potassium phosphate buffer (pH 7.4), 8 μL of 0.75 mM kynuramine, and 2 μL of a dimethyl sulfoxide (DMSO) inhibitor solution (final DMSO concentration of 1% (v/v) and final concentrations of the inhibitors of 0-1 μM), were preincubated at 37° C. for 10 min. Diluted human recombinant enzyme (50 μL) was then added to obtain a final protein concentration of 0.0075 mg/mL (MAO-A) or 0.015 mg/mL (MAO-B) in the assay mixture. The reaction mixture was further incubated at 37° C. and the reaction was stopped after 20 min by the addition of 75 μL of 2 M NaOH. The product generated by MAO, 4-quinolinol, is fluorescent and was measured at Ex 310 nm/Em 400 nm using a microplate reader (Thermo Scientific-Multiskan GO). Each data points of samples were triplicate. The sample solution was replaced with DMSO to provide a negative control. The IC50 values were calculated from a line through two points which sandwiched the point of 50% (IC50) by plotting the remained activity (%) related to control (100%) versus the logarithm of the inhibitor concentration to obtain a sigmoidal dose-response curve

For the next assay, the target named is T2, human MAO-B (Homo sapiens, UniProt P27338).
T2 sequence (P27338 1-520): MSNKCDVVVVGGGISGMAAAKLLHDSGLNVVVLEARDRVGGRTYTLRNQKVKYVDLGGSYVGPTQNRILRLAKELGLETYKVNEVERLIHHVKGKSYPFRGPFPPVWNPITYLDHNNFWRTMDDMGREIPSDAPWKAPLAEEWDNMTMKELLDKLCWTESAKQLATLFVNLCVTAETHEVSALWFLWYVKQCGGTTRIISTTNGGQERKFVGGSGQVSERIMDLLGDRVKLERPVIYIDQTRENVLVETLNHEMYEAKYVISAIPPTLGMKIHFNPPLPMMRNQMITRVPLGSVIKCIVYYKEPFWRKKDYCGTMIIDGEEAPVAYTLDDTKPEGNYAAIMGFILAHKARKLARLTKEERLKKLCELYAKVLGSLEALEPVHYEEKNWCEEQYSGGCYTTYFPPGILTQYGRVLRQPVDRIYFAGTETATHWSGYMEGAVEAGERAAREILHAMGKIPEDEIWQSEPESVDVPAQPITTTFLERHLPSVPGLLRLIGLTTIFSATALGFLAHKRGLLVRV
The experiment in a line: MAO inhibitory assay (kynuramine, fluorescence), MAO-B. It is filed as biochemical. The procedure:
as §1

With `Cn1nc(C(=O)NCCc2nc3ccccc3[nH]2)c2ccccc21` (racemic) [compound of formula I], the IC50 at human MAO-A worked out at 54.8 ± 1.9 nM; at human MAO-B (human recombinant enzyme, kynuramine substrate, 37° C., triplicate), 4.02 ± 0.03 nM. Also, the “fold more potent binding to MOA-B compared to MOA-A” value on human MAO-B (MAO-B over MAO-A, from IC50 values) is given as “approximately 13 fold”.

The values are drawn from patent US12528794B2, “MAO-B inhibitor DRG-MAOB-1 for use in treatment of neurodegenerative diseases” (BAHCESEHIR UNIVERSITESI, priority 2020, dated 2026).
